Reference: patent US11046716B2, “Beta-lactamase inhibitors” (priority 2015, dated 2021)
Read-outs that look alike come from different tables or passages of the source.

Key:
[1] = system: K. pneumoniae expressing the class A carbapenemase KPC-2 and the class B carbapenemase VIM-4; test: Broth microdilution MIC assay with meropenem, K. pneumoniae KPC-2 and VIM-4; type: cell-based; details: Fixed Mero (meropenem) 4 μg/mL; K. p. A-1797 KPC-2 VIM-4
Method in brief: (§1)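 CAMHB; cpd 2-fold serial dilution, 16–0.125 μg/mL final; β-lactam static 4 μg/ml; CLSI inoculation; 16–20 h, 37° C; MIC read by eye.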

[2] = system: E. coli expressing the Class A Extended Spectrum Beta-Lactamase (ESBL) CTX-M-15; test: Broth microdilution MIC assay with ceftazidime, E. coli CTX-M-15; type: cell-based; details: Fixed CAZ (ceftazidime) 4 μg/mL; E. coli ESBL4 CTX-M-15
Method in brief: as §1

[3] = target: T1, VIM-2 (Escherichia coli, UniProt Q5U7L7); test: β-lactamase enzyme inhibition assay, VIM-2 (nitrocefin substrate); type: biochemical
T1 construct: made in house; host or cells: E. coli BL21(DE3)
Method in brief: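 Enzyme + inhibitor, 37 °C, 15 min; nitrocefin 100 μM final; A486 read for 10 min. % inhibition vs no-inhibitor wells per concentration; IC50 = concentration halving initial hydrolysis rate.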

[4] = target: T2, AmpC (Enterobacter cloacae, UniProt P05364); test: β-lactamase enzyme inhibition assay, p99 AmpC (nitrocefin substrate); type: biochemical
T2 construct: made in house; host or cells: E. coli BL21(DE3)
T2 sequence (P05364 21-381): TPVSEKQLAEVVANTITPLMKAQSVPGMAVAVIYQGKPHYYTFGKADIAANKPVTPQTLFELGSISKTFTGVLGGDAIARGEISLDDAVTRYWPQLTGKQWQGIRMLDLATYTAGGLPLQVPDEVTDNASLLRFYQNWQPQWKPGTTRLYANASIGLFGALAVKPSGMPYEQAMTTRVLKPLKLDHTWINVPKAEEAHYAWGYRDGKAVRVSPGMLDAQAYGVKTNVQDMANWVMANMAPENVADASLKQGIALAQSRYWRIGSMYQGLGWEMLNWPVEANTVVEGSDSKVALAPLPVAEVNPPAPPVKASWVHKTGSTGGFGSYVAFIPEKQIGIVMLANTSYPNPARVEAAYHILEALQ
Method in brief: (§2)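 IC50 is the inhibitor level cutting initial substrate hydrolysis rate by 50% relative to no-inhibitor controls, after 15 min enzyme–inhibitor preincubation at 37 °C. enzymes were untagged, E. coli-expressed, chromatographically purified.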

[5] = target: T3, KPC-2 (Klebsiella pneumoniae, UniProt Q9F663); test: β-lactamase enzyme inhibition assay, KPC-2 (imipenem substrate); type: biochemical
T3 construct: made in house; host or cells: E. coli BL21(DE3)
T3 sequence (Q9F663 25-293, looked up): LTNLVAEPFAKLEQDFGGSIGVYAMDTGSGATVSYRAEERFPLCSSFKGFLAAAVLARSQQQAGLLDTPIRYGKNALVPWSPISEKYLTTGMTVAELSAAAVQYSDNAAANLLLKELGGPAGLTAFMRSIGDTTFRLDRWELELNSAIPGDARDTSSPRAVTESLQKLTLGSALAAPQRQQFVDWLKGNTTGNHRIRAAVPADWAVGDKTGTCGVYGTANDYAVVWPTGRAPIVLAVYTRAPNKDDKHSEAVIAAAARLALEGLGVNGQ
Method in brief: as §2, with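 “°C. KPC-2 read with imipenem at 300 nm, SHV-5 with cefotaxime at 260 nm;” for “°C.”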

[6] = target: OXA-48 (UniProt Q6XEC0); test: β-lactamase enzyme inhibition assay, Class D oxacillinase; type: biochemical; details: read-out: OXA-48
[7] = system: K. pneumoniae expressing the Class A carbapenemase KPC-2; test: Broth microdilution MIC assay with meropenem, K. pneumoniae KPC-2; type: cell-based; details: Fixed Mero (meropenem) 4 μg/mL; K. p. 156319 KPC-3
Method in brief: as §1

[8] = system: E. cloacae expressing the Class C P99; test: Broth microdilution MIC assay with ceftazidime, E. cloacae P99; type: cell-based; details: Fixed CAZ (ceftazidime) 4 μg/mL; E. cl. 144200 p99 AmpC
Method in brief: as §1

[9] = system: P. aeruginosa expressing the Class B carbapenemase VIM-2; test: Broth microdilution MIC assay with meropenem, P. aeruginosa VIM-2; type: cell-based; details: Fixed Mero (meropenem) 4 μg/mL; P. aerug. 2775 VIM-2
Method in brief: as §1

[10] = target: T4, SHV-5 (Klebsiella pneumoniae, UniProt P0A3M1); test: β-lactamase enzyme inhibition assay, SHV-5 (cefotaxime substrate); type: biochemical
T4 construct: made in house; host or cells: E. coli BL21(DE3)
T4 sequence (P0A3M1 22-286): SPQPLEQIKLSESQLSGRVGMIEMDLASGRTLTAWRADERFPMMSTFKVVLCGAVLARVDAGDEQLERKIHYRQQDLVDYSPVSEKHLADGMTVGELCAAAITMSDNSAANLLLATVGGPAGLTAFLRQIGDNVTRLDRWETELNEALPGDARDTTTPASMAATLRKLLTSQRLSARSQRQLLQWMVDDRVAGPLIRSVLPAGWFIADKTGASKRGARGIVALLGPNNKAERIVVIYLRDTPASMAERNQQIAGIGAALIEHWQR
Method in brief: as §2, with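 “°C. KPC-2 read with imipenem at 300 nm, SHV-5 with cefotaxime at 260 nm;” for “°C.”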

[11] = system: K. pneumoniae producing the Class D carbapenemase OXA-48; test: Broth microdilution MIC assay with meropenem, K. pneumoniae OXA-48; type: cell-based; details: Fixed Mero (meropenem) 4 μg/mL; K. p. 11978 OXA-48
Method in brief: as §1

[12] = Class B, nitrocefin substrate, 486 nm, read-out: VIM-2
[13] = Class A, imipenem substrate, 300 nm, read-out: KPC-2

Structure (SMILES)	MIC (μg/mL) of Exemplary Compounds in presence of fixed β-lactams: K. p. A-1797 KPC-2 VIM-4 [1]	MIC (μg/mL) of Exemplary Compounds in presence of fixed β-lactams: E. coli ESBL4 CTX-M-15 [2]	IC50 [3, 12] [nM]	IC50 [4] [nM]	IC50 [5, 13] [nM]	IC50 [6] [nM]	MIC (μg/mL) of Exemplary Compounds in presence of fixed β-lactams: K. p. 156319 KPC-3 [7]	MIC (μg/mL) of Exemplary Compounds in presence of fixed β-lactams: E. cl. 144200 p99 AmpC [8]	MIC (μg/mL) of Exemplary Compounds in presence of fixed β-lactams: P. aerug. 2775 VIM-2 [9]	IC50 [10] [nM]	MIC (μg/mL) of Exemplary Compounds in presence of fixed β-lactams: K. p. 11978 OXA-48 [11]	IC50 [3] [nM]	IC50 [5] [nM]
N[C@H]1CCN(C(=O)c2cn(CC(=O)N[C@H]3Cc4cccc(C(=O)O)c4OB3O)nn2)C1 [Example 66, (R)-3-(2-(4-((S)-3-aminopyrrolidine-1-carbonyl)-1H-1,2,3-triazol-1-yl)acetamido)-2-hydroxy-3,4-dihydro-2H-benzo[e][1,2]oxaborinine-8-carboxylic acid]	B (B represents an MIC between 1 and 16 μg/mL inclusive)	C (C represents an MIC of <1 μg/mL)	< 100	< 100	< 100	100 to 1000	C (C represents an MIC of <1 μg/mL)	C (C represents an MIC of <1 μg/mL)	C (C represents an MIC of <1 μg/mL)	< 100	B (B represents an MIC between 1 and 16 μg/mL inclusive)	–	–
NOCC(=O)NCc1cn(CC(=O)N[C@H]2Cc3cccc(C(=O)O)c3OB2O)nn1 [Example 77, (R)-3-(2-(4-((2-(aminooxy)acetamido)methyl)-1H-1,2,3-triazol-1-yl)acetamido)-2-hydroxy-3,4-dihydro-2H-benzo[e][1,2]oxaborinine-8-carboxylic acid]	B (B represents an MIC between 1 and 16 μg/mL inclusive)	C (C represents an MIC of <1 μg/mL)	100 to 1000	< 100	< 100	100 to 1000	C (C represents an MIC of <1 μg/mL)	C (C represents an MIC of <1 μg/mL)	C (C represents an MIC of <1 μg/mL)	< 100	B (B represents an MIC between 1 and 16 μg/mL inclusive)	–	–
CC(C)NCCc1cn(CC(=O)N[C@H]2Cc3cccc(C(=O)O)c3OB2O)nn1 [Example 7, (R)-2-hydroxy-3-(2-(4-(2-(isopropylamino)ethyl)-1H-1,2,3-triazol-1-yl)acetamido)-3,4-dihydro-2H-benzo[e][1,2]oxaborinine-8-carboxylic acid]	B (B represents an MIC between 1 and 16 μg/mL inclusive)	C (C represents an MIC of <1 μg/mL)	1000 to 10000	< 100	1000 to 10000	1000 to 10000	C (C represents an MIC of <1 μg/mL)	C (C represents an MIC of <1 μg/mL)	C (C represents an MIC of <1 μg/mL)	100 to 1000	B (B represents an MIC between 1 and 16 μg/mL inclusive)	–	–
NNC(=O)Cn1nnc(CC(=O)N[C@H]2Cc3cccc(C(=O)O)c3OB2O)n1 [Example 96, (R)-3-(2-(2-(2-hydrazinyl-2-oxoethyl)-2H-tetrazol-5-yl)acetamido)-2-hydroxy-3,4-dihydro-2H-benzo[e][1,2]oxaborinine-8-carboxylic acid]	B (B represents an MIC between 1 and 16 μg/mL inclusive)	C (C represents an MIC of <1 μg/mL)	100 to 1000	< 100	< 100	< 100	B (B represents an MIC between 1 and 16 μg/mL inclusive)	C (C represents an MIC of <1 μg/mL)	C (C represents an MIC of <1 μg/mL)	< 100	B (B represents an MIC between 1 and 16 μg/mL inclusive)	–	–
NCc1nc(CC(=O)N[C@H]2Cc3cccc(C(=O)O)c3OB2O)cs1 [Example 19, (R)-3-(2-(2-(aminomethyl)thiazol-4-yl)acetamido)-2-hydroxy-3,4-dihydro-2H-benzo[e][1,2]oxaborinine-8-carboxylic acid]	B (B represents an MIC between 1 and 16 μg/mL inclusive)	C (C represents an MIC of <1 μg/mL)	100 to 1000	< 100	< 100	< 100	B (B represents an MIC between 1 and 16 μg/mL inclusive)	C (C represents an MIC of <1 μg/mL)	C (C represents an MIC of <1 μg/mL)	< 100	B (B represents an MIC between 1 and 16 μg/mL inclusive)	–	–
NCCn1cc(Cn2nnnc2CC(=O)N[C@H]2Cc3cccc(C(=O)O)c3OB2O)nn1 [Example 123, (R)-3-(2-(1-((1-(2-aminoethyl)-1H-1,2,3-triazol-4-yl)methyl)-1H-tetrazol-5-yl)acetamido)-2-hydroxy-3,4-dihydro-2H-benzo[e][1,2]oxaborinine-8-carboxylic acid]	B (B represents an MIC between 1 and 16 μg/mL inclusive)	C (C represents an MIC of <1 μg/mL)	–	< 100	–	100 to 1000	C (C represents an MIC of <1 μg/mL)	C (C represents an MIC of <1 μg/mL)	A (A represents an MIC>16 μg/mL)	< 100	B (B represents an MIC between 1 and 16 μg/mL inclusive)	1000 to 10000	100 to 1000
N=C(N)NCCCn1nnnc1CC(=O)N[C@H]1Cc2cccc(C(=O)O)c2OB1O [Example 53, (R)-3-(2-(1-(3-guanidinopropyl)-1H-tetrazol-5-yl)acetamido)-2-hydroxy-3,4-dihydro-2H-benzo[e][1,2]oxaborinine-8-carboxylic acid]	C (C represents an MIC of <1 μg/mL)	C (C represents an MIC of <1 μg/mL)	< 100	< 100	< 100	1000 to 10000	C (C represents an MIC of <1 μg/mL)	C (C represents an MIC of <1 μg/mL)	C (C represents an MIC of <1 μg/mL)	< 100	B (B represents an MIC between 1 and 16 μg/mL inclusive)	–	–
NCCNC(=O)c1cn(CC(=O)N[C@H]2Cc3cccc(C(=O)O)c3OB2O)nn1 [Example 37, (R)-3-(2-(4-((2-aminoethyl)carbamoyl)-1H-1,2,3-triazol-1-yl)acetamido)-2-hydroxy-3,4-dihydro-2H-benzo[e][1,2]oxaborinine-8-carboxylic acid]	C (C represents an MIC of <1 μg/mL)	C (C represents an MIC of <1 μg/mL)	< 100	< 100	< 100	1000 to 10000	B (B represents an MIC between 1 and 16 μg/mL inclusive)	C (C represents an MIC of <1 μg/mL)	C (C represents an MIC of <1 μg/mL)	< 100	B (B represents an MIC between 1 and 16 μg/mL inclusive)	–	–
